From US8916553B2 (Bristol-Myers Squibb Company, priority 2010, dated 2014) come the findings set out here.

One experiment deals with Human CYP17 (Homo sapiens (Human), UniProt P05093). In words: CYP17 Total SPA Assay. It counts as biochemical. The settings on record: microsomes from HEK2 cells stably transfected with CYP17; 3H-Pregnenolone 1 uM; NADPH 2 mM; 45 minutes at room temperature. As for the experimental part:
CYP17 Total SPA Assay The assays were performed in U-bottom 384-well optiplates. […] The reaction was initiated by the combination of the microsomes and substrates in wells containing compound. The reaction was incubated at room temperature for 45 minutes and terminated by adding 7.5 μl of 0.2N HCl to each well. […] The plate was sealed and incubated overnight with shaking at 4° C. The beads were allowed to settle in the plate for 1 hour and the plate read on a TOPCOUNT® (Perkin-Elmer) plate reader. […] The final concentration of reagents in the assays are NADPH, 2 mM; 3H-Pregnenolone, 1 uM; microsomes, 1.25 ug/ml; […] Dose response curves were generated to determine the concentration required inhibiting 50% of enzyme activity (IC50). Compounds were dissolved at 10 mM in dimethylsulfoxide (DMSO) and evaluated at eleven concentrations, each in duplicate. IC50 values were derived by non-linear regression analysis. Table 22 below lists the IC50 values for the following Examples of this invention measured in the Total CYP17 SPA Assay hereinabove.

In another experiment the test system is testosterone levels. Description: 1-Day Cyno PK/PD Study. The class given is in vivo. As to conditions: cynomolgus monkeys; single oral dose of 5 mg/Kg in 80% PEG-400/water; blood samples over a 24 hour period (FIG. 1). As for the experimental part:
1-Day Cyno PK/PD Study Protocol
Animals: All procedures involving animals and their care were conducted in conformity with the guidelines that are in compliance with the Bristol-Myers Squibb Institutional Animal Care and Use Committee. Fully mature male cynomolgus monkeys (>4 yrs of age; 5-6 kg) were from an in-house colony. All the monkeys used had chronically implanted femoral vein access ports. For oral studies, all animals were fasted overnight prior to dosing and were fed 4 hr after dosing. All animals had free access to water and were conscious throughout the study.
Drug: For all oral pharmacokinetic studies in cynomolgus monkeys, the tested compound was formulated in polyethylene glycol (PEG 400): water (80:20, v:v) at concentrations of 1-5 mg/mL. […]
Sampling: Blood samples were collected from the femoral port, at 15, 30, and 45 min, and 1, 2, 4, 6, 8, 12, 24, 30, and 48 hr after oral administration. […] The plasma fraction was immediately separated by centrifugation (14,000 rpm, 10 min, 4° C.), frozen on dry ice, and stored at −20° C. until the samples were analyzed.
Analysis of Tested Compound: Plasma samples were thawed and treated with two volumes of acetonitrile containing internal standard. After centrifugation to remove precipitated proteins, an aliquot of supernatant was analyzed by LC/MS/MS. […]

Human CYP17, sequence (P05093 whole entry): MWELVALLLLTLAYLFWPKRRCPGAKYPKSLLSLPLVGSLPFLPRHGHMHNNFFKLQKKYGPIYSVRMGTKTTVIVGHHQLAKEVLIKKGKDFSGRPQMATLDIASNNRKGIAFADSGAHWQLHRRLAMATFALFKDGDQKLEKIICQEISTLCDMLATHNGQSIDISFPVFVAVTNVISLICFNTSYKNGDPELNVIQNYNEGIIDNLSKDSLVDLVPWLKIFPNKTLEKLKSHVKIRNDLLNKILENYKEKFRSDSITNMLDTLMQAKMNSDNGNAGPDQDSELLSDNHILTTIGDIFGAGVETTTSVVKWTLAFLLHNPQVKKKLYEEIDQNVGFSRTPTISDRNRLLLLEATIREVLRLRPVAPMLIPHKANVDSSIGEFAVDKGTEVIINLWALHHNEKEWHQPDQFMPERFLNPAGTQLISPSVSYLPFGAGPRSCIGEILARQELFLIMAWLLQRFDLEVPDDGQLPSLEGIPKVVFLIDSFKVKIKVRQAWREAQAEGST

Usually IC50 stands for the midpoint of a concentration-inhibition curve. For `COc1cc(NS(C)(=O)=O)ccc1-c1cnccc1C` [Example 217, N-(3-methoxy-4-(4-methyl-3-pyridinyl)phenyl)methanesulfonamide], at Human CYP17, the half-inhibitory concentration (IC50) worked out at 0.0025 µM. For the same compound, the testosterone levels result in the experiment on testosterone levels is recorded as “reduced”. Take `COc1cc(NS(=O)(=O)c2ccc(Cl)cc2)ccc1-c1cncnc1C` [Example 172, 4-chloro-N-(3-methoxy-4-(4-methylpyrimidin-5-yl)phenyl)benzenesulfonamide]: the IC50 at Human CYP17 was determined as 0.117 µM.
